Reference: patent US20260345609A1, “METHODS FOR PROMOTING PERSISTENCE OF CELL THERAPY” (Legend Biotech Ireland Limited, priority 2022, published 2026)

Tests used:
LUCAR-GC cells = experiment: Expansion of transplanted LUCAR-GC cells in peripheral blood of NUGC4 xenograft mice (hCD45+%/live); assay type: in vivo, NCG immunodeficient mice; human cells; settings: 22.635 mg/kg MTX i.p.
Excerpt: Severely immunodeficient NCG mice were used for in vivo efficacy evaluation. On day −14 before treatment, NCG immunodeficient mice were inoculated subcutaneously with tumor cells (3×10^6 human gastric cancer cells NUGC4/mouse). The xenografted mice were divided into 5 groups ([…], G3, G4 and G5) on day 0, and received a single intravenous injection of HBSS (G1, G5), untransduced T cells (UnT) (G2, at a dose of 3.6×10^6 cells/mouse), LUCAR-GC cell preparation (G3 and G4, at a dose of 1×10^6 CAR+ cells/mouse). Mice in G4 and G5 groups were additionally given 22.635 mg/kg MTX by intraperitoneal injection on day5, day10, day 15, day20, day25, day30, day35, respectively. […] During the experiment, animal status, survival, tumor volume and body weight were measured twice a week. Blood was collected from the mouse eyeballs every week to separate cells, and then resuspended in DPBS with 1 μL of FITC anti human CD45 (Biolegend, 304038). The proportion of transplanted cells (hCD45+%/live) in the peripheral blood of mice was counted.

CAR-γδT cells = experiment: In vitro mixed lymphoid (MLR) model with CAR-γδT cells, UnT and U937 cells: graft CAR-γδT cells; assay type: cell-based, human; settings: 0.05 μM and 0.5 μM MTX
Experimental: To evaluate the ability of γδ T cells to tolerate allogeneic T cell rejection, an in vitro mixed lymphoid (MLR) model was established.
Using the T cells from a random healthy donor (B donor), CAR-γδT cells were prepared following the method in Example 1, as the graft cells. Un-transduced T cells (UnT) from another random healthy donor (T cell donor A) were also prepared, as the host cells.
The density of CLL1 positive human lymphoma cells (U937) was adjusted to 1×10^6 cells/mL. U937 cells were treated with 20 μg/mL mitomycin at 37° C. for 3 h, washed three times with 10 mL DPBS, and suspended in the culture medium. 20×10^6 untransduced T cells (UnT, T cell donor A), 1×10^6 CAR-γδT cells (T cell donor B), and 5×10^6 treated human lymphoma cells U937 were mixed and cultured in the medium. The cell mixture was divided into 3 groups, and 0 μM, 0.05 μM MTX, or 0.5 μM MTX was added, respectively. […] CAR-γδT cells were stimulated repeatedly with U937 cells at day0, day4, day7 at an E/T ratio of 1:1 According to the formula: fold change of cell number (UnT)=[cell number counted by AOPI×(CD3-/TCR VY9+%)]/20, fold change of cell number (CAR-γδT)=[cell number counted by AOPI×(CD3+/TCR Vγ9+%)]/1, the cell proliferation curves of UnT and CAR-γδT cells were plotted.

LUCAR-20SD cells = experiment: Effect of MTX concentration on proliferation of LUCAR-20SD cells in vitro (AOPI counting); assay type: cell-based, human
Excerpt: pLVX-Puro vector purchased from Clontech was subjected to the digestion reaction with ClaI and EcoRI restriction enzymes, and the CMV promoter was replaced with a human EFlapromoter (GenBank: J04617.1) to obtain the pLVX-hEF1α vector. The gene of DHFR L22F/F31S (SEQ ID NO: 1) was inserted between SIV NEF M116 and CD20 CAR of LCAR-UL186S, which was disclosed in PCT patent applications No. PCT/CN2020/112181 and PCT/CN2020/112182. The fusion gene sequence of SIV Nef_M116-P2A-DHFR L22F/F31S-IRES-CD8α SP-CD20 scFv (Leu16)-CD8α Hinge-CD8α TM-4-1BB-ITAM010, hereinafter referred to as “LUCAR-20SD” (SEQ ID NO: 4) was cloned into the expression plasmid pLVX-hEF1α to form the LUCAR-20SD expression plasmid named as M1586. The recombinant expression plasmid M1586 was extracted, mixed with psPAX2 and pMD2. G helper plasmids in a certain proportion, and co-transfected into HEK 293T cells. After 60 h of transfection, the cell culture supernatant containing the virus was collected and centrifuged at 4° C. and 3000 rpm for 5 min. After the supernatant was filtered through a 0.45 μm filter, the 500 KD hollow fiber membrane column tangential flow technique was used to further concentrate to prepare a lentivirus concentrate, which was stored at-80° C. for later use.
50 mL of fresh peripheral blood of volunteers was extracted, and mixed with lymphocyte separation medium. The peripheral blood mononuclear cells (PBMC) were separated by density gradient centrifugation. The cells were labeled with magnetic beads using Pan T Cell Isolation Kit (Miltenyi Biotech), and T lymphocytes were isolated and purified, and then activated by CD3/CD28 magnetic beads. After culturing for 24 hours in a 37° C., 5% CO2 incubator, 5×10^6 activated T lymphocytes were infected with the lentiviral vector of LUCAR-20SD. […]
Cultured with the addition of methotrexate (MTX) at the concentrations of 0 μM, 0.01 μM, 0.05 μM, 0.1 μM, 1 μM, or 2 μM, the cell number of LUCAR-20SD cells at day0 day3 day6 day9, day 12, and the cell number of CAR-γδT cells at day0 day2 day5 day7 were counted by AOPI. […]

[1] = system: human gastric cancer cells NUGC4; experiment: In vivo efficacy in subcutaneous NUGC4 gastric cancer xenograft model, tumor volume; design: species or system NCG immunodeficient mice; human tumor cells; settings: G5, 22.635 mg/kg MTX alone i.p., day5 to day35, p>0.05
Excerpt: Refer to Example 1, the fusion gene sequence of SIV Nef M116-IRES-CD8α SP Claudin18.2 VHH-CD8α Hinge-CD8α TM-4-1BB-ITAM010 (SEQ ID NO: 5) was cloned into the expression plasmid pLVX-hEF1α to form the M1645 expression plasmid. The anti-Claudin18.2 VHH, as well as the antigen binding domain of CAR, have been disclosed in PCT/CN2020/139143. TGB23-6-IRES-DHFR L22F/F31S (SEQ ID NO: 7) was cloned into the expression plasmid pLVX-hEF1α to form the M1647 expression plasmid. The fusion protein of TGB23-6 is a signal converter, and has been described in PCT/CN2022/087016. To obtain LUCAR-GC cells, M1645 and M1647 were transduced into T cells. The production of Virus vector and the transduction of primary T were completed with reference to Example 1.
Severely immunodeficient NCG mice were used for in vivo efficacy evaluation. On day −14 before treatment, NCG immunodeficient mice were inoculated subcutaneously with tumor cells (3×10^6 human gastric cancer cells NUGC4/mouse). […] During the experiment, animal status, survival, tumor volume and body weight were measured twice a week. […] The proportion of transplanted cells (hCD45+%/live) in the peripheral blood of mice was counted.

Structure (SMILES): CN(Cc1cnc2nc(N)nc(N)c2n1)c1ccc(C(=O)N[C@@H](CCC(=O)O)C(=O)O)cc1 [MTX, methotrexate]
- expansion of LUCAR-GC cells in peripheral blood, presence or absence of MTX (LUCAR-GC cells): no significant difference in the expansion of LUCAR-GC cells
- protective effect on heterologous CAR-γδT cells (CAR-γδT cells): good protective effect on heterologous CAR-γδT cells
- proliferation of LUCAR-20SD cells compared with 0 μM MTX (LUCAR-20SD cells; 0.01 μM to 1 μM MTX, day 12, p>0.05): no significant difference in cell proliferation
- proliferation of LUCAR-20SD cells compared with 0 μM MTX (LUCAR-20SD cells; 2 μM MTX, day 12, p<0.05): decreased significantly
- minimal effective concentration (LUCAR-20SD cells; Homo sapiens, 288 h, day 12, read-out: MTX concentration that affects the proliferation of LUCAR-20SD cells): ≥ 2 µM
- tumor volume compared with control G1 and G2 [1]: not significantly different
